# From patent US5026848A, “Novel generation of heteroaryloxyalkyl heterocycles with antipicornaviruses activities” (Synphar Laboratories Incorporated, priority 1988, dated 1991)
# Columns and labels:
# [1] = tested on: Rhinovirus 31; assay: Anti-rhinovirus activity, cytopathic effect inhibition / neutral red dye uptake, type 31; assay type: cell-based; conditions: Enterovirus, WI-38; Table II; one of seven commonest serotypes; read-out: MIC 50 Rhinovirus Type 31
# [2] = tested on: Rhinovirus 1A; assay: Anti-rhinovirus activity, cytopathic effect inhibition / neutral red dye uptake, type 1A; assay type: cell-based; conditions: Enterovirus, WI-38; Table I; WI38 cells, 33° C., 3-4 days; NA = Not active; read-out: MIC50 Rhinovirus 1A
# [3] = tested on: Polio 1; assay: microbe, parasite or virus in culture; assay type: cell-based; conditions: Enterovirus, read-out: MIC 50 Polio 1
# [4] = tested on: Rhinovirus 4; assay: Anti-rhinovirus activity, cytopathic effect inhibition / neutral red dye uptake, type 4; assay type: cell-based; conditions: Enterovirus, WI-38; Table II; one of seven commonest serotypes; read-out: MIC 50 Rhinovirus Type 4
# [5] = tested on: Rhinovirus 17; assay: Anti-rhinovirus activity, cytopathic effect inhibition / neutral red dye uptake, type 17; assay type: cell-based; conditions: Enterovirus, WI-38; Table II; read-out: MIC 50 Rhinovirus Type 17
# [6] = tested on: Rhinovirus 44; assay: Anti-rhinovirus activity, cytopathic effect inhibition / neutral red dye uptake, type 44; assay type: cell-based; conditions: Enterovirus, WI-38; Table II; read-out: MIC 50 Rhinovirus Type 44
# [7] = tested on: 20 serotypes of rhinovirus; assay: Anti-rhinovirus activity against a panel of 20 serotypes; conditions: Table II; numerator; denominator 20, but 10 for compound 8 and 6 for compound 30
# [8] = tested on: Echo-7; assay: Activity against other picornaviruses, Echo-7; assay type: cell-based; conditions: Enterovirus, read-out: MIC 50 Echo 7
# [9] = tested on: Rhinovirus 23; assay: Anti-rhinovirus activity, cytopathic effect inhibition / neutral red dye uptake, type 23; assay type: cell-based; conditions: Enterovirus, WI-38; Table II; read-out: MIC 50 Rhinovirus Type 23
# [10] = tested on: Rhinovirus 88; assay: Anti-rhinovirus activity, cytopathic effect inhibition / neutral red dye uptake, type 88; assay type: cell-based; conditions: Enterovirus, WI-38; Table II; read-out: MIC 50 Rhinovirus Type 88
# [11] = tested on: Rhinovirus 15; assay: Anti-rhinovirus activity, cytopathic effect inhibition / neutral red dye uptake, type 15; assay type: cell-based; conditions: Enterovirus, WI-38; Table II; one of seven commonest serotypes; read-out: MIC 50 Rhinovirus Type 15
# [12] = tested on: Coxsacki-B4; assay: Activity against other picornaviruses, Coxsacki-B4; assay type: cell-based; conditions: Enterovirus, read-out: MIC 50 Cox. B4
# [13] = tested on: Enterovirus serotypes; assay type: cell-based; conditions: for All Enterovirus Serotypes (number of serotypes active / tested): Table III, numerator, denominator 7, but 5 for compound 8
# [14] = tested on: Rhinovirus 1B; assay: Anti-rhinovirus activity, cytopathic effect inhibition / neutral red dye uptake, type 1B; assay type: cell-based; conditions: Enterovirus, WI-38; Table II; one of seven commonest serotypes; read-out: MIC 50 Rhinovirus Type 1B
# [15] = tested on: HRV-1A and HRV-39; assay: Anti-rhinovirus activity against HRV-1A and HRV-39; conditions: in words
# [16] = tested on: Coxsacki-A9; assay: Activity against other picornaviruses, Coxsacki-A9; assay type: cell-based; conditions: Enterovirus, read-out: MIC 50 Cox. A9
# [17] = tested on: Coxsacki-A21; assay: Activity against other picornaviruses, Coxsacki-A21; assay type: cell-based; conditions: Enterovirus, read-out: MIC 50 Cox. A21
# [18] = tested on: Rhinovirus 32; assay: Anti-rhinovirus activity, cytopathic effect inhibition / neutral red dye uptake, type 32; assay type: cell-based; conditions: Enterovirus, WI-38; Table II; read-out: MIC 50 Rhinovirus Type 32
# [19] = tested on: Rhinovirus 39; assay: Anti-rhinovirus activity, cytopathic effect inhibition / neutral red dye uptake, type 39; assay type: cell-based; conditions: Enterovirus, WI-38; Table I; WI38 cells, 33° C., 3-4 days; read-out: MIC50 Rhinovirus 39
# [20] = tested on: Rhinovirus 86; assay: Anti-rhinovirus activity, cytopathic effect inhibition / neutral red dye uptake, type 86; assay type: cell-based; conditions: Enterovirus, WI-38; Table II; read-out: MIC 50 Rhinovirus Type 86
# [21] = tested on: Echo-11; assay: Activity against other picornaviruses, Echo-11; assay type: cell-based; conditions: Enterovirus, read-out: MIC 50 Echo 11
# [22] = tested on: Rhinovirus 36; assay: Anti-rhinovirus activity, cytopathic effect inhibition / neutral red dye uptake, type 36; assay type: cell-based; conditions: Enterovirus, WI-38; Table II; read-out: MIC 50 Rhinovirus Type 36
# [23] = tested on: Rhinovirus 56; assay: Anti-rhinovirus activity, cytopathic effect inhibition / neutral red dye uptake, type 56; assay type: cell-based; conditions: Enterovirus, WI-38; Table II; read-out: MIC 50 Rhinovirus Type 56
# [24] = tested on: Rhinovirus 29; assay: Anti-rhinovirus activity, cytopathic effect inhibition / neutral red dye uptake, type 29; assay type: cell-based; conditions: Enterovirus, WI-38; Table II; one of seven commonest serotypes; read-out: MIC 50 Rhinovirus Type 29
# [25] = tested on: Rhinovirus 63; assay: Anti-rhinovirus activity, cytopathic effect inhibition / neutral red dye uptake, type 63; assay type: cell-based; conditions: Enterovirus, WI-38; Table II; read-out: MIC 50 Rhinovirus Type 63
# [26] = tested on: Rhinovirus 53; assay: Anti-rhinovirus activity, cytopathic effect inhibition / neutral red dye uptake, type 53; assay type: cell-based; conditions: Enterovirus, WI-38; Table II; read-out: MIC 50 Rhinovirus Type 53
# [27] = tested on: WI38 cells; assay: Toxicity to WI38 cells (change in morphology in / growth inhibition of 25% of the cells); assay type: cell-based
# [28] = tested on: Rhinovirus 49; assay: Anti-rhinovirus activity, cytopathic effect inhibition / neutral red dye uptake, type 49; assay type: cell-based; conditions: Enterovirus, WI-38; Table II; read-out: MIC 50 Rhinovirus Type 49
# [29] = tested on: Rhinovirus 30; assay: Anti-rhinovirus activity, cytopathic effect inhibition / neutral red dye uptake, type 30; assay type: cell-based; conditions: Enterovirus, WI-38; Table II; read-out: MIC 50 Rhinovirus Type 30
# [30] = tested on: Rhinovirus 2; assay: Anti-rhinovirus activity, cytopathic effect inhibition / neutral red dye uptake, type 2; assay type: cell-based; conditions: Enterovirus, WI-38; Table II; one of seven commonest serotypes; read-out: MIC 50 Rhinovirus Type 2
# [31] = tested on: Coxsacki-B1; assay: Activity against other picornaviruses, Coxsacki-B1; assay type: cell-based; conditions: Enterovirus, read-out: MIC 50 Cox. B1
# [32] = Table I, concentration with change in morphology in 25% of WI38 cells
Structure (SMILES),EC50 [1] [µg/mL],EC50 [2] [µg/mL],EC50 [3] [µg/mL],IC50 [4] [µg/mL],IC50 [5] [µg/mL],All Rhinovirus Serotypes (number of serotypes active / tested) [7],IC50 [8] [µg/mL],IC50 [11] [µg/mL],All Enterovirus Serotypes (number of serotypes active / tested) [13],IC50 [14] [µg/mL],inhibitory activity against HRV-1A and HRV-39 in vitro [15],IC50 [17] [µg/mL],EC50 [19] [µg/mL],EC50 [20] [µg/mL],IC50 [21] [µg/mL],EC50 [22] [µg/mL],IC50 [24] [µg/mL],"Toxicity [27, 32] [µg/mL]",Toxicity ([27]; Table II) [µg/mL],Toxicity ([27]; Table III) [µg/mL],other results
Cc1cc(CCCCCCCOc2ccc3oc4ccccc4c3c2)on1 [Compound 5],10,5,10,< 0.5,10,17,25,5,5,5,remarkably inhibitory activity,5,1,0.5,> 25,> 25,5,100,100,100,EC50 [6]: < 0.5 µg/mL; IC50 [9]: 5 µg/mL; EC50 [10]: 0.5 µg/mL; IC50 [12]: > 25 µg/mL; inhibitory activity against the members of the Entero virus family [13]: remarkable inhibitory activity; EC50 [16]: 5 µg/mL; EC50 [18]: 25 µg/mL; EC50 [23]: 5 µg/mL; EC50 [25]: 10 µg/mL; EC50 [26]: 10 µg/mL; EC50 [28]: > 25 µg/mL; IC50 [29]: 0.5 µg/mL; IC50 [30]: > 25 µg/mL; IC50 [31]: 10 µg/mL
"Cc1cc(CCCCCCCOc2ccc3c(c2)[nH]c2ccccc23)on1 [Compound 8, 5-[7-(carbazol-2-yl)oxyheptyl]-3-methylisoxazole]",1,10,> 25,> 25,> 25,4,> 25,> 25,0,5,remarkably inhibitory activity,> 25,10,> 25,> 25,> 25,> 25,25,25,25,IC50 [31]: > 25 µg/mL
"Cc1cc(CCCCCCCOc2cccc3ccccc23)on1 [Compound 14, 5-[7-(1-naphthyl)oxyheptyl]-3-methylisoxazole]",,25,,,,,,,,,remarkably inhibitory activity,,25,,,,,> 50,,,
Cc1csc(CCCCCCCOc2ccc3oc4ccccc4c3c2)n1 [Compound 15],1,10,5,1,5,14,10,5,6,5,,5,5,< 0.5,> 25,> 25,5,50,50,50,EC50 [6]: 1 µg/mL; IC50 [9]: 10 µg/mL; EC50 [10]: < 0.5 µg/mL; IC50 [12]: 10 µg/mL; inhibitory activity against the members of the Entero virus family [13]: remarkable inhibitory activity; EC50 [16]: 1 µg/mL; EC50 [18]: > 25 µg/mL; EC50 [23]: 5 µg/mL; EC50 [25]: > 25 µg/mL; EC50 [26]: > 25 µg/mL; EC50 [28]: > 25 µg/mL; IC50 [29]: 5 µg/mL; IC50 [30]: > 25 µg/mL; IC50 [31]: 25 µg/mL
